US12673933B2, “Aminopyrazine compounds as HPK1 inhibitor and the use thereof” (BEIGENE, LTD., priority 2019, dated 2026)

Biological target: T1, HPK1 kinase (aa1-346, Life Technologies) (Homo sapiens, UniProt Q92918)
T1 construct: HPK1 kinase (aa1-346, Life Technologies); purchased Life Technologies
T1 sequence (Q92918 1-346): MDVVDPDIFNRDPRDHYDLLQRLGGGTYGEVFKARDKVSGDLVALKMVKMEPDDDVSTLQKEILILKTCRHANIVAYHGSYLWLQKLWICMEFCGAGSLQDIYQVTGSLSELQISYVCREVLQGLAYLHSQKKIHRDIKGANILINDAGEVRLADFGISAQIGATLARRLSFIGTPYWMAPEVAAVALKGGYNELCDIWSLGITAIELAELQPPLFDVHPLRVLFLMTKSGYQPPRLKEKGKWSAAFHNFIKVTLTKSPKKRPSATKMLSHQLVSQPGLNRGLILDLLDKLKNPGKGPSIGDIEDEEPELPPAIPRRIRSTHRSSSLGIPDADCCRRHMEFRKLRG
Experiment: HPK Kinase Activity Assay at 1 mM ATP (TR-FRET)
Type: biochemical
Details: HPK1 kinase 40 nM, 0.5 μM STK1 substrate, read-out: Enzymatic activity IC50
Experimental: HPK Kinase Activity Assay at 1 mM ATP
Compounds disclosed herein were tested for inhibition of HPK1 kinase (aa1-346, Life Technologies) activity in assays based on the time-resolved fluorescence-resonance energy transfer (TR-FRET) methodology. The assays were carried out in 384-well low volume black plates in a reaction mixture containing HPK1 kinase (40 nM), 1 mM ATP, 0.5 μM STK1 substrate and 0-10 μM compound in buffer containing 50 mM HEPES, 0.01% BSA, 0.1 mM Orthovanadate, 10 mM MgCl2, 1 mM DTT, pH=7.0, 0.005% Tween-20. The kinase was incubated with the compounds disclosed herein or DMSO for 60 minutes at room temperature and the reaction was initiated by the addition of ATP and STK1 substrate. After reaction at room temperature for 120 minutes, an equal volume of stop/detection solution was added according to the manufacture's instruction (CisBio). The stop/detection solution contained STK Antibody-Cryptate and XL665-conjugated streptavidin in Detection Buffer. The TR-FRET signals (ratio of fluorescence emission at 665 nm over emission at 620 nm with excitation at 337 nm wavelength) were recorded on a PHERAstar FS plate reader (BMG Labtech). Phosphorylation of STK1 substrate led to the binding of STK Antibody-Cryptate to the biotinylated STK1 substrate, which places fluorescent donor (Eu^3+ crypate) in close proximity to the accepter (Streptavidin-XL665), thus resulting in a high degree of fluorescence resonance energy transfer. The inhibition of HPK1 in presence of increasing concentrations of compounds was calculated based on the ratio of fluorescence at 665 nm to that at 620 nm. The IC50 for each compound was derived from fitting the data to the four-parameter logistic equation by Graphpad Prism software.

Question: How did the IC50 turn out when Cc1cc(-c2cnc(N)c(Oc3cnn(CCC#N)c3)n2)cc2c1CCN(C)C2 [Example 277, 3-(4-((3-amino-6-(2,5-dimethyl-1,2,3,4-tetrahydroisoquinolin-7-yl)pyrazin-2-yl)oxy)-1H-pyrazol-1-yl)propanenitrile] was run?
Answer: Its IC50 is 6.5 nM.

Question: For CCOCCn1cc(Oc2nc(-c3cc(C)c4c(c3)CN(C)CC4)cnc2N)cn1 [Example 278, 5-(2,5-dimethyl-1,2,3,4-tetrahydroisoquinolin-7-yl)-3-((1-(2-ethoxyethyl)-1H-pyrazol-4-yl)oxy)pyrazin-2-amine], which IC50 is on record?
Answer: The IC50 was 15 nM.

Question: For CNCCN(C)C(=O)c1cnn(-c2nc(-c3cc(C)c4c(c3)CN(C)CC4)cnc2N)c1 [Example 279, 1-(3-amino-6-(2,5-dimethyl-1,2,3,4-tetrahydroisoquinolin-7-yl)pyrazin-2-yl)-N-methyl-N-(2-(methylamino)ethyl)-1H-pyrazole-4-carboxamide], which IC50 is on record?
Answer: Its IC50 is 19 nM.

Question: How did the IC50 turn out when Cc1cc(-c2cnc(N)c(-n3cc(C(=O)N4CCC(F)(F)C4)cn3)n2)cc2c1CCN(C)C2 [Example 281, (1-(3-amino-6-(2,5-dimethyl-1,2,3,4-tetrahydroisoquinolin-7-yl)pyrazin-2-yl)-1H pyrazol-4-yl)(3,3-difluoropyrrolidin-1-yl)methanone] was run?
Answer: Its IC50 is 56 nM.

Question: With Cc1cc(-c2cnc(N)c(OCc3ccnc(N)c3O[C@H]3CCOC3)n2)cc2c1CCN(C)C2 [Example 282, (S)-3-((2-amino-3-((tetrahydrofuran-3-yl)oxy)pyridin-4-yl)methoxy)-5-(2,5-dimethyl-1,2,3,4-tetrahydroisoquinolin-7-yl)pyrazin-2-amine] as the compound, how does the IC50 read?
Answer: The IC50 was 6.6 nM.

Question: With COCCN(C)C(=O)c1cnn(-c2nc(-c3cc(C)c4c(c3)CN(C)CC4)cnc2N)c1 [Example 283, 1-(3-amino-6-(2,5-dimethyl-1,2,3,4-tetrahydroisoquinolin-7-yl)pyrazin-2-yl)-N-(2-methoxyethyl)-N-methyl-1H-pyrazole-4-carboxamide] as the compound, how does the IC50 read?
Answer: The IC50 was 6.3 nM.

Question: How did the IC50 turn out when Cc1cc(-c2cnc(N)c(-n3cc(C(=O)N4CCN(C)CC4)cn3)n2)cc2c1CCN(C)C2 [Example 284, (1-(3-amino-6-(2,5-dimethyl-1,2,3,4-tetrahydroisoquinolin-7-yl)pyrazin-2-yl)-1H-pyrazol-4-yl)(4-methylpiperazin-1-yl)methanone] was run?
Answer: Its IC50 is 38 nM.

Question: Cc1cc(-c2cnc(N)c(-n3cc(C(=O)NCCN4CCCC4)cn3)n2)cc2c1CCN(C)C2 [Example 285, 1-(3-amino-6-(2,5-dimethyl-1,2,3,4-tetrahydroisoquinolin-7-yl)pyrazin-2-yl)-N-(2-(pyrrolidin-1-yl)ethyl)-1H-pyrazole-4-carboxamide] was tested. Which IC50 did it give?
Answer: The IC50 was 14 nM.

Question: Cc1cc(-c2cnc(N)c(-n3cc(C(=O)N(C)c4ccccc4Cl)cn3)n2)cc2c1CCN(C)C2 [Example 286, 1-(3-amino-6-(2,5-dimethyl-1,2,3,4-tetrahydroisoquinolin-7-yl)pyrazin-2-yl)-N-(2-chlorophenyl)-N-methyl-1H-pyrazole-4-carboxamide] was tested. Which IC50 did it give?
Answer: The IC50 was 3.6 nM.

Question: With Cc1cc(-c2cnc(N)c(C(=O)Nc3ccncc3)n2)cc2c1CCN(C)C2 [Example 287, 3-amino-6-(2,5-dimethyl-1,2,3,4-tetrahydroisoquinolin-7-yl)-N-(pyridin-4-yl)pyrazine-2-carboxamide] as the compound, how does the IC50 read?
Answer: Its IC50 is 25 nM.

Question: Which IC50 does the source give for Cc1cc(-c2cnc(N)c(Oc3cnn(C(C)c4cccnc4)c3)n2)cc2c1CCN(C)C2 (centres unmarked) [Example 288, 5-(2,5-dimethyl-1,2,3,4-tetrahydroisoquinolin-7-yl)-3-(1-(1-(pyridin-3-yl)ethyl)-1H-pyrazol-4-yloxy)pyrazin-2-amine] here?
Answer: The IC50 was 17 nM.

Question: How did the IC50 turn out when CNc1cc(-c2cnc(N)c(-n3cc(C(=O)N(C)C)cn3)n2)cc2c1CCN(C)C2 [Example 289, 1-(3-amino-6-(2-methyl-5-(methylamino)-1,2,3,4-tetrahydroisoquinolin-7-yl)pyrazin-2-yl)-N,N-dimethyl-1H-pyrazole-4-carboxamide] was run?
Answer: The IC50 was 9.7 nM.

Question: CN1CCc2c(cc(-c3cnc(N)c(-n4cc(C(=O)N(C)C)cn4)n3)cc2NC2CC2)C1 [Example 290, 1-(3-amino-6-(5-(cyclopropylamino)-2-methyl-1,2,3,4-tetrahydroisoquinolin-7-yl)pyrazin-2-yl)-N,N-dimethyl-1H-pyrazole-4-carboxamide] was tested. Which IC50 did it give?
Answer: Its IC50 is 16 nM.

Question: How did the IC50 turn out when CCOCCN(C)C(=O)c1cnn(-c2nc(-c3cc(C)c4c(c3)CN(C)CC4)cnc2N)c1 [Example 292, 1-(3-amino-6-(2,5-dimethyl-1,2,3,4-tetrahydroisoquinolin-7-yl)pyrazin-2-yl)-N-(2-ethoxyethyl)-N-methyl-1H-pyrazole-4-carboxamide] was run?
Answer: The IC50 was 5.3 nM.

Question: For Cc1cc(-c2cnc(N)c(Oc3cnn(CC4CCOCC4)c3)n2)cc2c1CCN(C)C2 [Example 293, 5-(2,5-dimethyl-1,2,3,4-tetrahydroisoquinolin-7-yl)-3-(1-((tetrahydro-2H-pyran-4-yl)methyl)-1H-pyrazol-4-yloxy)pyrazin-2-amine], which IC50 is on record?
Answer: The IC50 was 37 nM.

Question: How did the IC50 turn out when CCS(=O)(=O)N1CC(n2cc(Oc3nc(-c4cc(C)c5c(c4)CN(C)CC5)cnc3N)cn2)C1 [Example 295, 5-(2,5-dimethyl-1,2,3,4-tetrahydroisoquinolin-7-yl)-3-(1-(1-(ethylsulfonyl)azetidin-3-yl)-1H-pyrazol-4-yloxy)pyrazin-2-amine] was run?
Answer: The IC50 was 36 nM.

Question: Which IC50 does the source give for Cc1cc(-c2cnc(N)c(Oc3cnn(C4CN(S(=O)(=O)c5ccccc5)C4)c3)n2)cc2c1CCN(C)C2 [Example 296, 5-(2,5-dimethyl-1,2,3,4-tetrahydroisoquinolin-7-yl)-3-(1-(1-(phenylsulfonyl)azetidin-3-yl)-1H-pyrazol-4-yloxy)pyrazin-2-amine] here?
Answer: Its IC50 is 67 nM.

Question: Which IC50 does the source give for Cc1cc(-c2cnc(N)c(-n3cc(C(=O)NCC4CC4)cn3)n2)cc2c1CCN(C)C2 [Example 297, 1-(3-amino-6-(2,5-dimethyl-1,2,3,4-tetrahydroisoquinolin-7-yl)pyrazin-2-yl)-N-(cyclopropylmethyl)-1H-pyrazole-4-carboxamide] here?
Answer: The IC50 was 6.6 nM.

Question: Cc1cc(-c2cnc(N)c(-n3cc(C(=O)NC4CC4)cn3)n2)cc2c1CCN(C)C2 [Example 298, 1-(3-amino-6-(2,5-dimethyl-1,2,3,4-tetrahydroisoquinolin-7-yl)pyrazin-2-yl)-N-cyclopropyl-1H-pyrazole-4-carboxamide] was tested. Which IC50 did it give?
Answer: The IC50 was 4.2 nM.

Question: For Cc1cc(-c2cnc(N)c(-n3cc(C(=O)NCCN4CCOCC4)cn3)n2)cc2c1CCN(C)C2 [Example 299, 1-(3-amino-6-(2,5-dimethyl-1,2,3,4-tetrahydroisoquinolin-7-yl)pyrazin-2-yl)-N-(2-morpholinoethyl)-1H-pyrazole-4-carboxamide], which IC50 is on record?
Answer: The IC50 was 8.9 nM.

Question: Which IC50 does the source give for Cc1cc(-c2cnc(N)c(-n3cc(C(=O)NCc4ccc(F)cc4Cl)cn3)n2)cc2c1CCN(C)C2 [Example 300, 1-(3-amino-6-(2,5-dimethyl-1,2,3,4-tetrahydroisoquinolin-7-yl)pyrazin-2-yl)-N-(2-chloro-4-fluorobenzyl)-1H-pyrazole-4-carboxamide] here?
Answer: The IC50 was 7.5 nM.

Question: Which IC50 does the source give for Cc1cc(-c2cnc(N)c(-n3cc(C(=O)N(C)CCN4CCCC4)cn3)n2)cc2c1CCN(C)C2 [Example 302, 1-(3-amino-6-(2,5-dimethyl-1,2,3,4-tetrahydroisoquinolin-7-yl)pyrazin-2-yl)-N-methyl-N-(2-(pyrrolidin-1-yl)ethyl)-1H-pyrazole-4-carboxamide] here?
Answer: Its IC50 is 54 nM.

Question: For Cc1cc(-c2cnc(N)c(Oc3cnn(CC(F)(F)F)c3)n2)cc2c1CCN(C)C2 [Example 303, 5-(2,5-dimethyl-1,2,3,4-tetrahydroisoquinolin-7-yl)-3-((1-(2,2,2-trifluoroethyl)-1H-pyrazol-4-yl)oxy)pyrazin-2-amine], which IC50 is on record?
Answer: The IC50 was 16 nM.

Question: With Cc1cc(-c2cnc(N)c(-n3cc(C(=O)N(C)CC4CCOC4)cn3)n2)cc2c1CCN(C)C2 (centres unmarked) [Example 304, 1-(3-amino-6-(2,5-dimethyl-1,2,3,4-tetrahydroisoquinolin-7-yl)pyrazin-2-yl)-N-methyl-N-((tetrahydrofuran-3-yl)methyl)-1H-pyrazole-4-carboxamide] as the compound, how does the IC50 read?
Answer: Its IC50 is 10 nM.

Question: Cc1cc(-c2cnc(N)c(-n3cc(C(=O)NC4CCOC4)cn3)n2)cc2c1CCN(C)C2 (centres unmarked) [Example 305, 1-(3-amino-6-(2,5-dimethyl-1,2,3,4-tetrahydroisoquinolin-7-yl)pyrazin-2-yl)-N-(tetrahydrofuran-3-yl)-1H-pyrazole-4-carboxamide] was tested. Which IC50 did it give?
Answer: Its IC50 is 8.9 nM.

Question: With Cc1cc(-c2cnc(N)c(-n3cc(C(=O)N(C)C4CCOC4)cn3)n2)cc2c1CCN(C)C2 (centres unmarked) [Example 306, 1-(3-amino-6-(2,5-dimethyl-1,2,3,4-tetrahydroisoquinolin-7-yl)pyrazin-2-yl)-N-methyl-N-(tetrahydrofuran-3-yl)-1H-pyrazole-4-carboxamide] as the compound, how does the IC50 read?
Answer: The IC50 was 89 nM.
